# According to patent publication US11419852B2, “Beta-lactam compounds or salts thereof for use in long-acting prevention or treatment of a glucose metabolism disorder” (GLYCOLYSIS BIOMED CO., LTD., priority 2019, dated 2022):
# Marks after values point to notes of the source that are not given here.
# Test system: db/db mice
# Test: Oral glucose tolerance test (OGTT)
# Format: in vivo
# Parameters: OGTT AUC: unit not given here
# Description: Four to five weeks old db/db mice (BKS.Cg-Dock7^m+/+Lepr^db/JNarl) and m/m mice (BKS.Cg-Dock7^m+/Dock7^m+) were obtained from National Laboratory Animal Center ([…], Taiwan). […] PMI Nutrition International, Brentwood, Mo.) and water ad libitum. […] Blood was sampled from the tail vein, and FPG levels were measured and recorded as the basic blood glucose levels. […] The total area under the curve (AUC) in OGTT was plotted and calculated by the Area Under Coordinates Program (StatsToDo Server, Department of Obstetrics and Gynecology, Chinese University of Hong Kong).
compound,measurement,setting,value
"C[C@@H](O)[C@H]1C(=O)N2C(C(=O)O)=C(S[C@@H]3CN[C@H](C(=O)Nc4cccc(C(=O)O)c4)C3)[C@H](C)[C@H]12 [DMH, ertapenem]",OGTT AUC vs untreated mice (DB group),"Ex 1, week 3, P<0.05",significantly smaller
same,Glucose concentration in OGTT vs DB group,"Ex 1, week 3, time points of 90 min and 120 min (FIG. 1)",significantly lower
same,OGTT AUC,"Ex 1: db/db mice, ertapenem i.p. 0.41 mg/g bw/day, 3 weeks",1298 ± 186
same,OGTT AUCs vs metformin-treated (G3) and untreated db/db mice (G2),"Ex 2, G4 and G5, weeks 6, 12, and 16, P<0.05",significantly smaller
same,Oral glucose tolerance of db/db mice after stop,"Ex 2, after the treatment had been stopped for 10 weeks",effectively increased
same,Oral glucose tolerance (OGT) of db/db mice,"Ex 2, most time points (ertapenem: weeks 6 and 12)",significantly increased
same,Level of OGTT (blood glucose),"Ex 2 G4 db/db, DMH i.p. 0.1 mg/g bw/day, dosing 6 weeks, Week 6, 0 min",219 ± 36 mg/dL
same,Level of OGTT (blood glucose),"Ex 2 G4 db/db, DMH i.p. 0.1 mg/g bw/day, dosing 6 weeks, Week 6, 15 min",866 ± 38^bc
same,Level of OGTT (blood glucose),"Ex 2 G4 db/db, DMH i.p. 0.1 mg/g bw/day, dosing 6 weeks, Week 6, 30 min",671 ± 62 mg/dL
same,Level of OGTT (blood glucose),"Ex 2 G4 db/db, DMH i.p. 0.1 mg/g bw/day, dosing 6 weeks, Week 6, 60 min",486 ± 57 mg/dL
same,Level of OGTT (blood glucose),"Ex 2 G4 db/db, DMH i.p. 0.1 mg/g bw/day, dosing 6 weeks, Week 6, 120 min",286 ± 44^bc
same,Level of OGTT (blood glucose),"Ex 2 G4 db/db, DMH i.p. 0.1 mg/g bw/day, dosing 6 weeks, Week 12, 0 min",154 ± 30^ab
same,Level of OGTT (blood glucose),"Ex 2 G4 db/db, DMH i.p. 0.1 mg/g bw/day, dosing 6 weeks, Week 12, 15 min",866 ± 36 mg/dL
same,Level of OGTT (blood glucose),"Ex 2 G4 db/db, DMH i.p. 0.1 mg/g bw/day, dosing 6 weeks, Week 12, 30 min",794 ± 60^bc
same,Level of OGTT (blood glucose),"Ex 2 G4 db/db, DMH i.p. 0.1 mg/g bw/day, dosing 6 weeks, Week 12, 60 min",503 ± 67 mg/dL
same,Level of OGTT (blood glucose),"Ex 2 G4 db/db, DMH i.p. 0.1 mg/g bw/day, dosing 6 weeks, Week 12, 120 min",372 ± 83 mg/dL
same,Level of OGTT (blood glucose),"Ex 2 G4 db/db, DMH i.p. 0.1 mg/g bw/day, dosing 6 weeks, Week 16, 0 min",126 ± 43^ab
same,Level of OGTT (blood glucose),"Ex 2 G4 db/db, DMH i.p. 0.1 mg/g bw/day, dosing 6 weeks, Week 16, 15 min",575 ± 44 mg/dL
same,Level of OGTT (blood glucose),"Ex 2 G4 db/db, DMH i.p. 0.1 mg/g bw/day, dosing 6 weeks, Week 16, 30 min",609 ± 39^c
same,Level of OGTT (blood glucose),"Ex 2 G4 db/db, DMH i.p. 0.1 mg/g bw/day, dosing 6 weeks, Week 16, 60 min",506 ± 52^c
same,Level of OGTT (blood glucose),"Ex 2 G4 db/db, DMH i.p. 0.1 mg/g bw/day, dosing 6 weeks, Week 16, 120 min",270 ± 65^bd
same,Level of OGTT (blood glucose),"Ex 2 G4 db/db, DMH i.p. 0.1 mg/g bw/day, dosing 6 weeks, Week 18, 0 min",263 ± 58 mg/dL
same,Level of OGTT (blood glucose),"Ex 2 G4 db/db, DMH i.p. 0.1 mg/g bw/day, dosing 6 weeks, Week 18, 15 min",785 ± 57 mg/dL
same,Level of OGTT (blood glucose),"Ex 2 G4 db/db, DMH i.p. 0.1 mg/g bw/day, dosing 6 weeks, Week 18, 30 min",894 ± 49 mg/dL
same,Level of OGTT (blood glucose),"Ex 2 G4 db/db, DMH i.p. 0.1 mg/g bw/day, dosing 6 weeks, Week 18, 60 min",735 ± 47 mg/dL
same,Level of OGTT (blood glucose),"Ex 2 G4 db/db, DMH i.p. 0.1 mg/g bw/day, dosing 6 weeks, Week 18, 120 min",447 ± 53 mg/dL
same,OGTT AUC,"Ex 2 G4 db/db, DMH i.p. 0.1 mg/g bw/day, dosing 6 weeks, week 6",1033 ± 87^b
same,OGTT AUC,"Ex 2 G4 db/db, DMH i.p. 0.1 mg/g bw/day, dosing 6 weeks, week 12",1096 ± 119^b
same,OGTT AUC,"Ex 2 G4 db/db, DMH i.p. 0.1 mg/g bw/day, dosing 6 weeks, week 16",902 ± 85^b
same,OGTT AUC,"Ex 2 G4 db/db, DMH i.p. 0.1 mg/g bw/day, dosing 6 weeks, week 18",1339 ± 80^b
same,Level of OGTT (blood glucose),"Ex 2 G5 db/db, DMH i.p. 0.2 mg/g bw/day, dosing 6 weeks, Week 6, 0 min",166 ± 21 mg/dL
same,Level of OGTT (blood glucose),"Ex 2 G5 db/db, DMH i.p. 0.2 mg/g bw/day, dosing 6 weeks, Week 6, 15 min",750 ± 57 mg/dL
same,Level of OGTT (blood glucose),"Ex 2 G5 db/db, DMH i.p. 0.2 mg/g bw/day, dosing 6 weeks, Week 6, 30 min",618 ± 68 mg/dL
same,Level of OGTT (blood glucose),"Ex 2 G5 db/db, DMH i.p. 0.2 mg/g bw/day, dosing 6 weeks, Week 6, 60 min",425 ± 63 mg/dL
same,Level of OGTT (blood glucose),"Ex 2 G5 db/db, DMH i.p. 0.2 mg/g bw/day, dosing 6 weeks, Week 6, 120 min",316 ± 92^bc
same,Level of OGTT (blood glucose),"Ex 2 G5 db/db, DMH i.p. 0.2 mg/g bw/day, dosing 6 weeks, Week 12, 0 min",191 ± 42^bc
same,Level of OGTT (blood glucose),"Ex 2 G5 db/db, DMH i.p. 0.2 mg/g bw/day, dosing 6 weeks, Week 12, 15 min",879 ± 45 mg/dL
same,Level of OGTT (blood glucose),"Ex 2 G5 db/db, DMH i.p. 0.2 mg/g bw/day, dosing 6 weeks, Week 12, 30 min",790 ± 40^bc
same,Level of OGTT (blood glucose),"Ex 2 G5 db/db, DMH i.p. 0.2 mg/g bw/day, dosing 6 weeks, Week 12, 60 min",548 ± 69 mg/dL
same,Level of OGTT (blood glucose),"Ex 2 G5 db/db, DMH i.p. 0.2 mg/g bw/day, dosing 6 weeks, Week 12, 120 min",440 ± 81^bc
same,Level of OGTT (blood glucose),"Ex 2 G5 db/db, DMH i.p. 0.2 mg/g bw/day, dosing 6 weeks, Week 16, 0 min",154 ± 56^ab
same,Level of OGTT (blood glucose),"Ex 2 G5 db/db, DMH i.p. 0.2 mg/g bw/day, dosing 6 weeks, Week 16, 15 min",619 ± 48 mg/dL
same,Level of OGTT (blood glucose),"Ex 2 G5 db/db, DMH i.p. 0.2 mg/g bw/day, dosing 6 weeks, Week 16, 30 min",686 ± 34^bc
same,Level of OGTT (blood glucose),"Ex 2 G5 db/db, DMH i.p. 0.2 mg/g bw/day, dosing 6 weeks, Week 16, 60 min",551 ± 52^bc
same,Level of OGTT (blood glucose),"Ex 2 G5 db/db, DMH i.p. 0.2 mg/g bw/day, dosing 6 weeks, Week 16, 120 min",314 ± 54^bc
same,Level of OGTT (blood glucose),"Ex 2 G5 db/db, DMH i.p. 0.2 mg/g bw/day, dosing 6 weeks, Week 18, 0 min",308 ± 51 mg/dL
same,Level of OGTT (blood glucose),"Ex 2 G5 db/db, DMH i.p. 0.2 mg/g bw/day, dosing 6 weeks, Week 18, 15 min",943 ± 43 mg/dL
